From ChEMBL document CHEMBL2440076, “New triarylpyrazoles as broad-spectrum anticancer agents: design, synthesis, and biological evaluation” (Eur J Med Chem, 2013)

What was measured:
Assay type in all cases: functional
[1] = test system: SF-539; test: Growth inhibition of human SF539 cells assessed as cell growth at 10^-4 M after 48 hrs by sulforhodamine B assay; settings: SF-539, 48 h, read-out: Activity
[2] = test system: A498; test: Growth inhibition of human A498 cells assessed as cell growth at 10^-6 M after 48 hrs by sulforhodamine B assay; settings: A498, 48 h, read-out: Activity
[3] = test system: NCI-H322M; test: Growth inhibition of human NCI-H322M cells assessed as cell growth at 10^-4 M after 48 hrs by sulforhodamine B assay; settings: read-out: Activity
[4] = test system: RPMI-8226; test: Growth inhibition of human RPMI8226 cells assessed as cell growth at 10^-8 M after 48 hrs by sulforhodamine B assay; settings: RPMI-8226, 48 h, read-out: Activity
[5] = test system: MDA-MB-468; test: Growth inhibition of human MDA-MB-468 cells assessed as cell growth at 10^-8 M after 48 hrs by sulforhodamine B assay; settings: MDA-MB-468, 48 h, read-out: Activity
[6] = test system: SR; test: Growth inhibition of human SR cells assessed as cell growth at 10^-8 M after 48 hrs by sulforhodamine B assay; settings: read-out: Activity
[7] = test system: MDA-MB-231; test: Growth inhibition of human MDA-MB-231 cells assessed as cell growth at 10^-5 M after 48 hrs by sulforhodamine B assay; settings: MDA-MB-231, 48 h, read-out: Activity
[8] = test system: MDA-MB-468; test: Growth inhibition of human MDA-MB-468 cells assessed as cell growth at 10^-5 M after 48 hrs by sulforhodamine B assay; settings: MDA-MB-468, 48 h, read-out: Activity
[9] = test system: SN12C; test: Growth inhibition of human SN12C cells assessed as cell growth at 10^-6 M after 48 hrs by sulforhodamine B assay; settings: read-out: Activity
[10] = test system: NCI-H460; test: Growth inhibition of human NCI-H460 cells assessed as cell growth at 10^-5 M after 48 hrs by sulforhodamine B assay; settings: NCI-H460, 48 h, read-out: Activity
[11] = Growth inhibition of human NCI-ADR-RES cells assessed as cell growth at 10^-8 M after 48 hrs by sulforhodamine B assay; settings: read-out: Activity
[12] = test system: DU-145; test: Growth inhibition of human DU145 cells assessed as cell growth at 10^-5 M after 48 hrs by sulforhodamine B assay; settings: DU-145, 48 h, read-out: Activity
[13] = test system: TK-10; test: Growth inhibition of human TK10 cells assessed as cell growth at 10^-5 M after 48 hrs by sulforhodamine B assay; settings: TK-10, 48 h, read-out: Activity
[14] = test system: DU-145; test: Growth inhibition of human DU145 cells assessed as cell growth at 10^-7 M after 48 hrs by sulforhodamine B assay; settings: DU-145, 48 h, read-out: Activity
[15] = test system: SF-539; test: Growth inhibition of human SF539 cells assessed as cell growth at 10^-6 M after 48 hrs by sulforhodamine B assay; settings: SF-539, 48 h, read-out: Activity
[16] = Growth inhibition of human Hs 578T cells assessed as cell growth at 10^-4 M after 48 hrs by sulforhodamine B assay; settings: read-out: Activity
[17] = test system: UACC-62; test: Growth inhibition of human UACC62 cells assessed as cell growth at 10^-4 M after 48 hrs by sulforhodamine B assay; settings: UACC-62, 48 h, read-out: Activity
[18] = Growth inhibition of human NCI-ADR-RES cells assessed as cell growth at 10^-7 M after 48 hrs by sulforhodamine B assay; settings: read-out: Activity
[19] = test system: K562; test: Growth inhibition of human K562 cells assessed as cell growth at 10^-6 M after 48 hrs by sulforhodamine B assay; settings: K562, 48 h, read-out: Activity
[20] = test system: SK-MEL-5; test: Growth inhibition of human SK-MEL-5 cells assessed as cell growth at 10^-8 M after 48 hrs by sulforhodamine B assay; settings: SK-MEL-5, 48 h, read-out: Activity
[21] = test system: SK-MEL-2; test: Growth inhibition of human SK-MEL-2 cells assessed as cell growth at 10^-6 M after 48 hrs by sulforhodamine B assay; settings: SK-MEL-2, 48 h, read-out: Activity
[22] = test system: 786-0; test: Growth inhibition of human 786-0 cells assessed as cell growth at 10^-7 M after 48 hrs by sulforhodamine B assay; settings: 786-0, 48 h, read-out: Activity
[23] = test system: OVCAR-4; test: Growth inhibition of human OVCAR4 cells assessed as cell growth at 10^-6 M after 48 hrs by sulforhodamine B assay; settings: OVCAR-4, 48 h, read-out: Activity
[24] = test system: COLO 205; test: Growth inhibition of human COLO205 cells assessed as cell growth at 10^-5 M after 48 hrs by sulforhodamine B assay; settings: COLO 205, 48 h, read-out: Activity
[25] = test system: MCF7; test: Growth inhibition of human MCF7 cells assessed as cell growth at 10^-7 M after 48 hrs by sulforhodamine B assay; settings: MCF7, 48 h, read-out: Activity
[26] = test system: ACHN; test: Growth inhibition of human ACHN cells assessed as cell growth at 10^-7 M after 48 hrs by sulforhodamine B assay; settings: read-out: Activity
[27] = test system: SK-MEL-2; test: Growth inhibition of human SK-MEL-2 cells assessed as cell growth at 10^-7 M after 48 hrs by sulforhodamine B assay; settings: SK-MEL-2, 48 h, read-out: Activity
[28] = test system: SF-295; test: Growth inhibition of human SF295 cells assessed as cell growth at 10^-4 M after 48 hrs by sulforhodamine B assay; settings: SF-295, 48 h, read-out: Activity
[29] = test system: CCRF-CEM; test: Growth inhibition of human CCRF-CEM cells assessed as cell growth at 10^-4 M after 48 hrs by sulforhodamine B assay; settings: read-out: Activity
[30] = test system: SNB-75; test: Growth inhibition of human SNB75 cells assessed as cell growth at 10^-8 M after 48 hrs by sulforhodamine B assay; settings: SNB-75, 48 h, read-out: Activity
[31] = test system: NCI-H322M; test: Growth inhibition of human NCI-H322M cells assessed as cell growth at 10^-5 M after 48 hrs by sulforhodamine B assay; settings: read-out: Activity
[32] = test system: A498; test: Growth inhibition of human A498 cells assessed as cell growth at 10^-4 M after 48 hrs by sulforhodamine B assay; settings: A498, 48 h, read-out: Activity
[33] = test system: SR; test: Growth inhibition of human SR cells assessed as cell growth at 10^-6 M after 48 hrs by sulforhodamine B assay; settings: read-out: Activity
[34] = test system: M14; test: Growth inhibition of human M14 cells assessed as cell growth at 10^-6 M after 48 hrs by sulforhodamine B assay; settings: M14, 48 h, read-out: Activity
[35] = test system: CAKI-1; test: Growth inhibition of human CAKI-1 cells assessed as cell growth at 10^-7 M after 48 hrs by sulforhodamine B assay; settings: CAKI-1, 48 h, read-out: Activity
[36] = test system: SK-MEL-28; test: Growth inhibition of human SK-MEL-28 cells assessed as cell growth at 10^-7 M after 48 hrs by sulforhodamine B assay; settings: SK-MEL-28, 48 h, read-out: Activity
[37] = test system: T47D; test: Growth inhibition of human T47D cells assessed as cell growth at 10^-7 M after 48 hrs by sulforhodamine B assay; settings: read-out: Activity
[38] = test system: OVCAR-3; test: Growth inhibition of human OVCAR3 cells assessed as cell growth at 10^-4 M after 48 hrs by sulforhodamine B assay; settings: OVCAR-3, 48 h, read-out: Activity

Structure (SMILES)	growth at 100 µM [1] [%]	growth at 1 µM [2] [%]	growth at 100 µM [3] [%]	growth at 0.01 µM [4] [%]	growth at 0.01 µM [5] [%]	growth at 0.01 µM [6] [%]	growth at 10 µM [7] [%]	growth at 10 µM [8] [%]	growth at 1 µM [9] [%]	growth at 10 µM [10] [%]	growth at 0.01 µM [11] [%]	growth at 10 µM [12] [%]	growth at 10 µM [13] [%]	growth at 0.1 µM [14] [%]	growth at 1 µM [15] [%]	growth at 100 µM [16] [%]	growth at 100 µM [17] [%]	growth at 0.1 µM [18] [%]	growth at 1 µM [19] [%]	growth at 0.01 µM [20] [%]	other results
COc1cc(-c2nn(-c3cccc(NC(=O)c4ccc(N5CCOCC5)c(C(F)(F)F)c4)c3)cc2-c2ccncc2)ccc1Cl	-40	1	-1	102	95	91	-30	-64	51	1	102	13	14	98	-30	14	-32	72	11	95	growth at 1 µM [21]: 24%; growth at 0.1 µM [22]: 100%; growth at 1 µM [23]: 49%; growth at 10 µM [24]: -84%; growth at 0.1 µM [25]: 76%; growth at 0.1 µM [26]: 83%; growth at 0.1 µM [27]: 73%; growth at 100 µM [28]: -72%; growth at 100 µM [29]: 8%; growth at 0.01 µM [30]: 89%; growth at 10 µM [31]: 26%; growth at 100 µM [32]: -24%; growth at 1 µM [33]: 8%; growth at 1 µM [34]: 35%; growth at 0.1 µM [35]: 87%; growth at 0.1 µM [36]: 68%; growth at 0.1 µM [37]: 93%; growth at 100 µM [38]: -33%
COc1cc(-c2nn(-c3cccc(NC(=O)c4ccccc4)c3)cc2-c2ccncc2)ccc1Cl	-22	19	34	102	90	94	7	-15	64	7	98	13	45	100	21	32	19	92	21	97	growth at 1 µM [21]: 22%; growth at 0.1 µM [22]: 92%; growth at 1 µM [23]: 51%; growth at 10 µM [24]: -31%; growth at 0.1 µM [25]: 87%; growth at 0.1 µM [26]: 95%; growth at 0.1 µM [27]: 90%; growth at 100 µM [28]: -46%; growth at 100 µM [29]: 16%; growth at 0.01 µM [30]: 89%; growth at 10 µM [31]: 36%; growth at 100 µM [32]: -7%; growth at 1 µM [33]: 7%; growth at 1 µM [34]: 37%; growth at 0.1 µM [35]: 99%; growth at 0.1 µM [36]: 94%; growth at 0.1 µM [37]: 92%; growth at 100 µM [38]: -51%
